Experimental data from ChEMBL document CHEMBL2401670, “Synthesis and biological evaluation of rhodanine derivatives bearing a quinoline moiety as potent antimicrobial agents” (Bioorg Med Chem Lett, 2013).
Values after ≈ are worked out from the molar mass of the structure shown.

How the values were obtained:
Staphylococcus aureus [1] = experiment: Antibacterial activity against Staphylococcus aureus KCTC 209 after 24 hrs by broth microdilution method; type: functional; conditions: KCTC 209, 24 h
Staphylococcus aureus [2] = experiment: Antibacterial activity against methicillin-resistant Staphylococcus aureus CCARM 3506 after 24 hrs by broth microdilution method; type: functional; conditions: CCARM 3506, 24 h
Staphylococcus aureus [3] = experiment: Antibacterial activity against Staphylococcus aureus KCTC 503 after 24 hrs by broth microdilution method; type: functional; conditions: KCTC 503, 24 h
Escherichia coli = experiment: Antibacterial activity against Escherichia coli CCARM 1356 after 24 hrs by broth microdilution method; type: functional; conditions: CCARM 1356, 24 h
Staphylococcus aureus [4] = experiment: Antibacterial activity against quinolone-resistant Staphylococcus aureus CCARM 3519 after 24 hrs by broth microdilution method; type: functional; conditions: CCARM 3519, 24 h
Staphylococcus aureus [5] = experiment: Antibacterial activity against quinolone-resistant Staphylococcus aureus CCARM 3505 after 24 hrs by broth microdilution method; type: functional; conditions: CCARM 3505, 24 h
Staphylococcus aureus [6] = experiment: Antibacterial activity against methicillin-resistant Staphylococcus aureus CCARM 3167 after 24 hrs by broth microdilution method; type: functional; conditions: CCARM 3167, 24 h
Staphylococcus aureus [7] = experiment: Antibacterial activity against Staphylococcus aureus RN4220 after 24 hrs by broth microdilution method; type: functional; conditions: RN4220, 24 h
HeLa = experiment: Cytotoxicity against human HeLa cells after 48 hrs by MTT assay; type: cell-based
Staphylococcus aureus [8] = experiment: Ratio of norfloxacin MIC to compound MIC for methicillin-resistant Staphylococcus aureus CCARM 3167; type: functional
Staphylococcus aureus [9] = experiment: Ratio of norfloxacin MIC to compound MIC for quinolone-resistant Staphylococcus aureus CCARM 3519; type: functional
Staphylococcus aureus [10] = experiment: Ratio of moxifloxacin MIC to compound MIC for quinolone-resistant Staphylococcus aureus CCARM 3519; type: functional
Staphylococcus aureus [11] = experiment: Ratio of moxifloxacin MIC to compound MIC for quinolone-resistant Staphylococcus aureus CCARM 3505; type: functional
Staphylococcus aureus [12] = experiment: Ratio of gatifloxacin MIC to compound MIC for quinolone-resistant Staphylococcus aureus CCARM 3505; type: functional
Staphylococcus aureus [13] = experiment: Ratio of norfloxacin MIC to compound MIC for quinolone-resistant Staphylococcus aureus CCARM 3505; type: functional
Staphylococcus aureus [14] = experiment: Ratio of gatifloxacin MIC to compound MIC for quinolone-resistant Staphylococcus aureus CCARM 3519; type: functional
Staphylococcus aureus [15] = experiment: Ratio of norfloxacin MIC to compound MIC for methicillin-resistant Staphylococcus aureus CCARM 3506; type: functional

Compound	MIC (Staphylococcus aureus [1]) [µg/mL]	MIC (Staphylococcus aureus [2]) [µg/mL]	MIC (Staphylococcus aureus [3]) [µg/mL]	MIC (Escherichia coli) [µg/mL]	MIC (Staphylococcus aureus [4]) [µg/mL]	MIC (Staphylococcus aureus [5]) [µg/mL]	MIC (Staphylococcus aureus [6]) [µg/mL]	MIC (Staphylococcus aureus [7]) [µg/mL]	IC50 (HeLa) [µg/mL]	Ratio (Staphylococcus aureus [8])	Ratio (Staphylococcus aureus [9])	Ratio (Staphylococcus aureus [10])	Ratio (Staphylococcus aureus [11])	Ratio (Staphylococcus aureus [12])	Ratio (Staphylococcus aureus [13])	Ratio (Staphylococcus aureus [14])	Ratio (Staphylococcus aureus [15])
Cc1onc(-c2ccccc2)c1C(=O)N[C@@H]1C(=O)N2[C@@H]1SC(C)(C)[C@@H]2C(=O)O [OXACILLIN]	1 (≈ 2.49 µM)	> 64	1 (≈ 2.49 µM)	> 64	1 (≈ 2.49 µM)	1 (≈ 2.49 µM)	> 64	1 (≈ 2.49 µM)	–	–	–	–	–	–	–	–	–
CCC(C)[C@@H](C(=O)O)N1C(=O)/C(=C/c2cc3cc(OCc4cccc(Cl)c4)ccc3nc2Cl)SC1=S (some centres undefined)	> 64	1 (≈ 1.78 µM)	4 (≈ 7.12 µM)	> 64	2 (≈ 3.56 µM)	1 (≈ 1.78 µM)	2 (≈ 3.56 µM)	2 (≈ 3.56 µM)	–	–	–	–	–	–	–	–	–
COc1c(N2C[C@@H]3CCCN[C@@H]3C2)c(F)cc2c(=O)c(C(=O)O)cn(C3CC3)c12 [MOXIFLOXACIN]	–	–	–	> 64	4 (≈ 9.96 µM)	–	–	0.25 (≈ 0.623 µM)	–	–	–	–	–	–	–	–	–
Cc1ccc(COc2ccc3nc(Cl)c(/C=C4\SC(=S)N([C@@H](CC(C)C)C(=O)O)C4=O)cc3c2)cc1	8 (≈ 14.8 µM)	2 (≈ 3.7 µM)	8 (≈ 14.8 µM)	> 64	1 (≈ 1.85 µM)	1 (≈ 1.85 µM)	1 (≈ 1.85 µM)	1 (≈ 1.85 µM)	8.84 (≈ 16.3 µM)	–	–	–	–	–	–	–	–
CC(C)C[C@@H](C(=O)O)N1C(=O)/C(=C/c2cc3cc(OCc4ccc(Cl)cc4)ccc3nc2Cl)SC1=S	4 (≈ 7.12 µM)	1 (≈ 1.78 µM)	4 (≈ 7.12 µM)	> 64	1 (≈ 1.78 µM)	1 (≈ 1.78 µM)	1 (≈ 1.78 µM)	1 (≈ 1.78 µM)	–	4	4	4	4	4	4	4	4
CC(C)C[C@@H](C(=O)O)N1C(=O)/C(=C/c2cc3cc(OCc4ccccc4Cl)ccc3nc2Cl)SC1=S	4 (≈ 7.12 µM)	1 (≈ 1.78 µM)	8 (≈ 14.2 µM)	> 64	2 (≈ 3.56 µM)	1 (≈ 1.78 µM)	1 (≈ 1.78 µM)	1 (≈ 1.78 µM)	–	–	–	–	–	–	–	–	–
Cc1ccc(COc2ccc3nc(Cl)c(/C=C4\SC(=S)N([C@@H](Cc5ccccc5)C(=O)O)C4=O)cc3c2)cc1	8 (≈ 13.9 µM)	1 (≈ 1.74 µM)	8 (≈ 13.9 µM)	> 64	1 (≈ 1.74 µM)	1 (≈ 1.74 µM)	1 (≈ 1.74 µM)	2 (≈ 3.48 µM)	13.3 (≈ 23.1 µM)	4	4	4	4	4	4	4	4
O=C(O)[C@H](Cc1ccccc1)N1C(=O)/C(=C/c2cc3cc(OCc4ccccc4F)ccc3nc2Cl)SC1=S	64 (≈ 111 µM)	2 (≈ 3.45 µM)	8 (≈ 13.8 µM)	> 64	2 (≈ 3.45 µM)	2 (≈ 3.45 µM)	1 (≈ 1.73 µM)	4 (≈ 6.91 µM)	–	–	–	–	–	–	–	–	–
CCC(C)[C@@H](C(=O)O)N1C(=O)/C(=C/c2cc3cc(OCc4ccccc4F)ccc3nc2Cl)SC1=S (some centres undefined)	32 (≈ 58.7 µM)	1 (≈ 1.83 µM)	4 (≈ 7.34 µM)	> 64	2 (≈ 3.67 µM)	2 (≈ 3.67 µM)	2 (≈ 3.67 µM)	2 (≈ 3.67 µM)	–	–	–	–	–	–	–	–	–
CCC(C)[C@@H](C(=O)O)N1C(=O)/C(=C/c2cc3cc(OCc4ccc(F)cc4)ccc3nc2Cl)SC1=S (some centres undefined)	2 (≈ 3.67 µM)	1 (≈ 1.83 µM)	4 (≈ 7.34 µM)	> 64	1 (≈ 1.83 µM)	2 (≈ 3.67 µM)	2 (≈ 3.67 µM)	1 (≈ 1.83 µM)	–	–	–	–	–	–	–	–	–
O=C(O)[C@H](Cc1ccccc1)N1C(=O)/C(=C/c2cc3cc(OCc4cccc(Cl)c4)ccc3nc2Cl)SC1=S	64 (≈ 107 µM)	2 (≈ 3.36 µM)	8 (≈ 13.4 µM)	> 64	2 (≈ 3.36 µM)	2 (≈ 3.36 µM)	2 (≈ 3.36 µM)	2 (≈ 3.36 µM)	–	–	–	–	–	–	–	–	–
CC(C)C[C@@H](C(=O)O)N1C(=O)/C(=C/c2cc3cc(OCc4cccc(Cl)c4)ccc3nc2Cl)SC1=S	4 (≈ 7.12 µM)	2 (≈ 3.56 µM)	64 (≈ 114 µM)	> 64	2 (≈ 3.56 µM)	2 (≈ 3.56 µM)	1 (≈ 1.78 µM)	2 (≈ 3.56 µM)	–	–	–	–	–	–	–	–	–
